Experiments:
[1] = system: B16F10-Cas9 cells pulsed with SIINFEKL peptide, co-cultured with OT-I T cells; experiment: Genome-scale CRISPR-Cas9 screen, selection with OT-I T cells; format: cell-based, mouse; conditions: for OT1 (sgRNA Log(2) fold change, OT-I selection versus control T cells): Table 3, B16F10-Cas9 cells pulsed with SIINFEKL, co-cultured with OT-I T cells 1:1 for one day, negative = depleted, positive = enriched; for logFC: Log2 fold change of gRNAs per gene, OT-I screen, genes depleted (FDR < 0.05)
[2] = system: B16F10-Cas9 cells co-cultured with Pmel-1 T cells; experiment: Genome-scale CRISPR-Cas9 screen, selection with Pmel-1 T cells; format: cell-based, mouse; conditions: for Pmel+ (sgRNA Log(2) fold change, Pmel-1 selection versus control T cells): Table 3, B16F10-Cas9 cells pre-treated with IFNγ, co-cultured with Pmel-1 T cells 1:1 for three days, negative = depleted, positive = enriched; for logFC: Log(2) fold change of gRNAs per gene, genes depleted in Pmel-1 screen

Row | Substance | OT1 (sgRNA Log(2) fold change, OT-I selection versus control T cells) [1] | Pmel+ (sgRNA Log(2) fold change, Pmel-1 selection versus control T cells) [2] | logFC [2] | logFC [1]
1 | AGGGAACCTCACTTCCAAGT (chemistry not fully specified) | 3.12 | 4.83 | – | –
2 | AGGTCACAATGTACCAACCC (chemistry not fully specified) | -1.71 | -2.61 | – | –
3 | AGTTGGATCGCGAATAAAGA (chemistry not fully specified) | -2.70 | -2.35 | – | –
4 | AGTTTGGAGCCCAGTAGGCA (chemistry not fully specified) | -2.77 | -2.19 | – | –
5 | ATACACAACTATGATGCCAT (chemistry not fully specified) | -1.48 | 5.64 | – | –
6 | ATAGAAATCTGACACTGCCG (chemistry not fully specified) | -2.12 | 0.00 | – | –
7 | ATAGCACCAAAGCCTAACAA (chemistry not fully specified) | -2.27 | 0.00 | – | –
8 | ATCACCTGGAGCATGCAGGA (chemistry not fully specified) | -0.29 | 2.72 | – | –
9 | ATGAGGTACAGCAGAAAGGT (chemistry not fully specified) | -2.05 | 0.90 | – | –
10 | ATGCAGATAATCCGCCAAAG (chemistry not fully specified) | -2.49 | 0.00 | – | –
11 | ATGGGATTGATCGTTACTGG (chemistry not fully specified) | -2.32 | 0.00 | – | –
12 | ATGTTGCCATCGTCACTGCA (chemistry not fully specified) | 0.41 | 3.04 | – | –
13 | ATTTCAAGAGATTCTATGCT (chemistry not fully specified) | -2.59 | 1.73 | – | –
14 | ATTTGGATTTCAATGTGAGG (chemistry not fully specified) | 5.19 | 3.20 | – | –
15 | CAAAGTCTGCTGTCCGACCT (chemistry not fully specified) | 0.41 | 2.57 | – | –
16 | CAAGAGCCAGACCTTGGATG (chemistry not fully specified) | -2.86 | 0.41 | – | –
17 | CAATAATGCTGGTCTACGTG (chemistry not fully specified) | 0.89 | 2.58 | – | –
18 | CACACCCTTACTGCCCGTCG (chemistry not fully specified) | -2.48 | -1.34 | – | –
19 | CACCGGATCGTCCAATTCCG (chemistry not fully specified) | -2.82 | -0.88 | – | –
20 | CACTGCGAGACCAATCTAGA (chemistry not fully specified) | 1.44 | 2.24 | – | –
21 | Cd36 (guide TAGGATATGGAACCAAACTG; chemistry not fully specified) | – | – | −2.18 | –
22 | Chic2 (guide GCTCAAGTACTCGCCCGACC; chemistry not fully specified) | – | – | – | −2.09
23 | Ctps | – | – | – | −1.69
24 | Mrps21 (guide GCGTCGTCGACTTATGACTT; chemistry not fully specified) | – | – | – | −2.09
25 | Nudcd2 (guide GGTTCCTTGCGGGACTCCGT; chemistry not fully specified) | – | – | – | −2.09
26 | Sepsecs (guide CACCGGATCGTCCAATTCCG; chemistry not fully specified) | – | – | – | −2.62
27 | Tial1 (guide AATGCAATTGTGCATATGGG; chemistry not fully specified) | – | – | −2.01 | –

— patent US11820822B2, “Methods for sensitizing cancer cells to T cell-mediated killing by modulating molecular pathways” (DANA-FARBER CANCER INSTITUTE, INC., priority 2017, dated 2023)
